Source: US20260262647A1, “Synergistic Compositions Containing Guanidine” (Thor GmbH, priority 2023, published 2026)

What was measured:
Type in all cases: cell-based
bacteria mixture A = assay: Emulsion paint inoculated three times with bacteria mixture A, live bacteria count CFU/g; conditions: for CFU/g after inoculation: emulsion paint, 7 d
Text: In example 34, the synergistic interaction between guanidine and a zinc compound (zinc oxide) with respect to microbial infestation was examined in an emulsion paint by adding particular amounts of guanidine in the form of guanidine hydrochloride and a zinc compound in the form of zinc oxide, and tested for stability to microbial infestation. The paint tested was an emulsion paint based on styrene-acrylate binder (PVK 77%, pH 8.8) for indoor use, produced in the laboratory, without addition of the usual preservatives.
The samples were inoculated repeatedly, three times in total, with a bacterial cell suspension of the following composition (2% v/w).
• Alcaligenes faecalis NCIMB 13145 • Escherichia coli DSM 13631 • Burkholderia cepacia DSM 9241 • Staphylococcus aureus DSM 799 • Pseudomonas aeruginosa DSM 50071 • Pseudomonas putida DSM 13624
The cell suspension of the bacteria mixture A was produced by growing the individual bacteria at 30° C. for 24 h in liquid culture on a shaker. The growth medium used for the bacteria was Müller-Hinton liquid medium. After growing, the individual liquid cultures were centrifuged, and the cells were resuspended in physiological saline solution. In order to adjust the mixture to a total cell count of 10^9/ml, the individual bacteria suspensions, if necessary, were diluted accordingly before being combined with saline solution. The cell count of the inoculum was determined in each case by chamber counting.
After each inoculation and after incubation at 30° C. for 7 days, microbial infestation was evaluated in the samples by determining the live bacteria count per g of paint (colony-forming units, CFU/g). The CFU/g was determined each time by taking an aliquot (1 g) from the previously homogenized sample and running a serial decadic dilution series in physiological saline solution (0.9% NaCl) by streaking on tryptic soy agar, followed by incubation of the agar plates at 30° C. for 48 h.

bacteria mixture B = assay: Emulsion paint inoculated once with bacteria mixture B, semiquantitative growth evaluation; set-up: key: 0: No growth; Minimal growth, 1 to 10 colonies visible over the entire streak; 2: Light growth, maximum 100 colonies; Moderate growth, maximum 300 to 400 colonies; Uniform growth, >400 colonies, single colonies still clearly recognizable; 5: Heavy growth, too many colonies to count, but no growth over the entire streak; 6: Full growth, barely any single colonies still apparent, growth over the entire streak; conditions: +6000 ppm guanidine hydrochloride (3708 ppm guanidine)
Text: In examples 35 to 38 below, synergistic interaction between guanidine and antimicrobial substances with respect to microbial infestation was studied using an emulsion paint and a laundry detergent or cleaning composition by adding particular amounts of guanidine salts and isothiazolinones and examining their stability against microbial infestation: […] The laundry detergent was a heavy-duty laundry detergent without preservatives (pH 8.1), and the cleaning composition was an all-purpose detergent without preservatives (pH 7.6), each likewise made in the laboratory, without addition of the otherwise usual conventional preservatives. To each paint was added—individually and in combination—particular concentrations of guanidinium hydrochloride, benzisothiazolinone (BIT), and a mixture of chloromethylisothiazolinone (CIT) and methylisothiazolinone (MIT). The laundry detergent and the cleaning composition were admixed with particular concentrations of guanidinium hydrochloride and benzisothiazolinone (BIT). The resultant batches of the paint thus prepared were inoculated with a mixture of different bacteria species (bacteria mixture B); the batches of the laundry detergent and cleaning compositions thus prepared were inoculated with a yeast mixture. • Pseudomonas spp. (Pseudomonas oleovorans group) DSM 33933 • Pseudomonas aeruginosa DSM 33935 • Pseudomonas oleovorans DSM 33936 • Pseudomonas spec. DSM 33937 • Pseudomonas aeruginosa DSM 33938 […] The cell suspension of the bacteria mixture was produced by growing the individual bacteria at 30° C. for 24 h in liquid culture on a shaker. The growth medium used for the bacteria was Müller-Hinton liquid medium. After growing, the individual liquid cultures were centrifuged, and the cells were resuspended in physiological saline solution. […] The cell count of the inoculum was determined in each case by chamber counting. […] The streaked agar plates were then incubated at 30° C. for 48 hours (bacteria) or at 25° C. for 72 hours (yeasts). After incubation, the bacterial or yeast colonies that have grown on the agar plates were visually evaluated and quantified according to the following scheme: [table]

yeast mixture = assay: All-purpose detergent inoculated once with yeast mixture, semiquantitative growth evaluation; set-up: key: 0: No growth; Minimal growth, 1 to 10 colonies visible over the entire streak; 2: Light growth, maximum 100 colonies; Moderate growth, maximum 300 to 400 colonies; Uniform growth, >400 colonies, single colonies still clearly recognizable; 5: Heavy growth, too many colonies to count, but no growth over the entire streak; 6: Full growth, barely any single colonies still apparent, growth over the entire streak; conditions: Example 38, all-purpose detergent, +8000 ppm guanidine hydrochloride (4944 ppm guanidine)
Text: In examples 35 to 38 below, synergistic interaction between guanidine and antimicrobial substances with respect to microbial infestation was studied using an emulsion paint and a laundry detergent or cleaning composition by adding particular amounts of guanidine salts and isothiazolinones and examining their stability against microbial infestation: […] The laundry detergent was a heavy-duty laundry detergent without preservatives (pH 8.1), and the cleaning composition was an all-purpose detergent without preservatives (pH 7.6), each likewise made in the laboratory, without addition of the otherwise usual conventional preservatives. To each paint was added—individually and in combination—particular concentrations of guanidinium hydrochloride, benzisothiazolinone (BIT), and a mixture of chloromethylisothiazolinone (CIT) and methylisothiazolinone (MIT). The laundry detergent and the cleaning composition were admixed with particular concentrations of guanidinium hydrochloride and benzisothiazolinone (BIT). The resultant batches of the paint thus prepared were inoculated with a mixture of different bacteria species (bacteria mixture B); the batches of the laundry detergent and cleaning compositions thus prepared were inoculated with a yeast mixture. • Pichia manshurica DSM 12249 • Rhodotorula mucilaginosa DSM 12248 • Candida boidinii DSM 13622 • Candida albicans DSM 1386 […] Further steps for establishment of a cell count of the inoculum suspension of 10^8/ml were effected analogously to the production of the bacteria suspension. […] The streaked agar plates were then incubated at 30° C. for 48 hours (bacteria) or at 25° C. for 72 hours (yeasts). After incubation, the bacterial or yeast colonies that have grown on the agar plates were visually evaluated and quantified according to the following scheme: [table]

Compound: N=C(N)N [guanidine]
- CFU/g after inoculation (bacteria mixture A; Guanidine hydrochloride 1000 ppm (618 ppm guanidine), 1. inoculation): 8.7 × 10^5 CFU/g
- CFU/g after inoculation (bacteria mixture A; Guanidine hydrochloride 1000 ppm (618 ppm guanidine), 2. inoculation): >10^6 CFU/g
- CFU/g after inoculation (bacteria mixture A; Guanidine hydrochloride 1000 ppm (618 ppm guanidine), 3. inoculation): >10^6 CFU/g
- CFU/g after inoculation (bacteria mixture A; Guanidine hydrochloride 2500 ppm (1545 ppm guanidine), 1. inoculation): <100 CFU/g
- CFU/g after inoculation (bacteria mixture A; Guanidine hydrochloride 2500 ppm (1545 ppm guanidine), 2. inoculation): <100 CFU/g
- CFU/g after inoculation (bacteria mixture A; Guanidine hydrochloride 2500 ppm (1545 ppm guanidine), 3. inoculation): >10^6 CFU/g
- CFU/g after inoculation (bacteria mixture A; Guanidine hydrochloride 5000 ppm (3090 ppm guanidine), 1. inoculation): <100 CFU/g
- CFU/g after inoculation (bacteria mixture A; Guanidine hydrochloride 5000 ppm (3090 ppm guanidine), 2. inoculation): <100 CFU/g
- CFU/g after inoculation (bacteria mixture A; Guanidine hydrochloride 5000 ppm (3090 ppm guanidine), 3. inoculation): <100 CFU/g
- QA: Concentration of guanidine as the sole agent that shows an endpoint (bacteria mixture A; guanidine alone in emulsion paint, endpoint after 3 inoculations up to a maximum of 1000 CFU/g): 3090 ppm
- Synergy index Qa/QA + Qb/QB (bacteria mixture A; guanidine and zinc in emulsion paint, Qa, Qb): 1.00
- Bacterial growth (bacteria mixture B; Example 35, emulsion paint, Day 1): 6
- Bacterial growth (bacteria mixture B; Example 35, emulsion paint, Day 6): 6
- Bacterial growth (bacteria mixture B; Example 36, emulsion paint, Day 1): 6
- Bacterial growth (bacteria mixture B; Example 36, emulsion paint, Day 6): 6
- Yeast growth (yeast mixture; Day 1): 6
- Yeast growth (yeast mixture; Day 3): 4 (Uniform growth, >400 colonies, single colonies still clearly recognizable)
